Measured values: BindingDB's records for doi:10.7270/Q2RR233C (D3R/Abbott, 2020)
Values joined by “and” are separate entries in the source; they are usually repeats but may differ in a detail not shown here. Identical values can stand only once.

Target: Tyrosine-protein kinase ABL1 (Homo sapiens, UniProt P00519)
Test: D3R2026
Text: D3R2026

Sequence of Tyrosine-protein kinase ABL1 (P00519 whole entry): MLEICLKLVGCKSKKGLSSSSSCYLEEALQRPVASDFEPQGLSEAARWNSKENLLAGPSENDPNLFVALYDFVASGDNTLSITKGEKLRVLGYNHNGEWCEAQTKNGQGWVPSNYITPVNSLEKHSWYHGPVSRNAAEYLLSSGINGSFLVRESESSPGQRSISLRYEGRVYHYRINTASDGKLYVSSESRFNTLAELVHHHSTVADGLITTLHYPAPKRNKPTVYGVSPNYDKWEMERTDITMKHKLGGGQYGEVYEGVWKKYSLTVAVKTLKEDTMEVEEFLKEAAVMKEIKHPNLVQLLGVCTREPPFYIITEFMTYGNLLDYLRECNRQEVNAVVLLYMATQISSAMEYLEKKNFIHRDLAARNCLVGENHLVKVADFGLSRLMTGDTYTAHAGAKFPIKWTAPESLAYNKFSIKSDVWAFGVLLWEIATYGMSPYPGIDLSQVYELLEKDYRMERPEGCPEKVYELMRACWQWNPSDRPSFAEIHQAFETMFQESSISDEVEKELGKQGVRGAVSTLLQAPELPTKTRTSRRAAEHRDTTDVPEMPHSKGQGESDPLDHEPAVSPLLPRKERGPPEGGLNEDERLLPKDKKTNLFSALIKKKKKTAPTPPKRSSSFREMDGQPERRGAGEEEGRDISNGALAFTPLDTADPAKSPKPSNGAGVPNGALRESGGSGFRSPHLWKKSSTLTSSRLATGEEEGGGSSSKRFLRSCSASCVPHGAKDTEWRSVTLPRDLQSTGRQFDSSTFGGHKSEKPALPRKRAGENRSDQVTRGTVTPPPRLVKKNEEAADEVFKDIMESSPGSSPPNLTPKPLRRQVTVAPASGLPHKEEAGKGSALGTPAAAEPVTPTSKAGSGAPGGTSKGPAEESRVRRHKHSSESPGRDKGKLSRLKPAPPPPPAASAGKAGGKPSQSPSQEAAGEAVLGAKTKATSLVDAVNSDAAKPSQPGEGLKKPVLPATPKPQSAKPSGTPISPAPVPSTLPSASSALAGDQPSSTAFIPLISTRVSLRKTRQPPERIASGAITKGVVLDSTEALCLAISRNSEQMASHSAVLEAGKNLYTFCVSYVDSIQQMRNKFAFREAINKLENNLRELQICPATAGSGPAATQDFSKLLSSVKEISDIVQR

## CCOC(=O)N1CCC(n2cnc(-c3ccc(F)cc3)c2-c2ccnc(N)n2)CC1 [4-[5-(2-Amino-pyrimidin-4-yl)-4-(4-fluoro-phenyl)-imidazol-1-yl]-piperidine-1-carboxylic acid ethyl ester]
  Kd: 4.8 µM and 10 µM and 2.2 µM and 5.4 µM
